# Experimental data taken from patent US20250145665A1, “MACROCYCLIC PEPTIDES USEFUL AS MODULATORS OF TNF ALPHA” (Bristol-Myers Squibb Company, priority 2023, published 2025).
# pIC50: −log10 of the molar value. Starred links: 1 amine or outer side, 2 acyl side, 3 side chain; linkers in the order of their positions; H or OH if unused. Positions of bridges follow the written chain, without caps; N, C: chain ends. Non-standard residues stand in square brackets, D forms with d. Residues, ends and D or L forms follow the SMILES beside them. *: point of attachment. Bip(4'-NHCO-C6H4-3-CH2COOH) = N[C@@H](Cc1ccc(-c2ccc(NC(=O)c3cccc(CC(=O)O)c3)cc2)cc1)C(=O)O; Bip(4'-NHCO-C6H4-4-CH2COOH) = N[C@@H](Cc1ccc(-c2ccc(NC(=O)c3ccc(CC(=O)O)cc3)cc2)cc1)C(=O)O; X5 = Cn1nc(C(=O)Nc2ccc(-c3ccc(C[C@H](N[*:1])C(=O)[*:2])cc3)cc2)c2ccccc21; X9 = Cn1nc(C(=O)Nc2cccc(-c3ccc(C[C@H](N[*:1])C(=O)[*:2])cc3)c2)c2cccnc21; X37 = O=C(Nc1ccc(-c2ccc(C[C@H](N[*:1])C(=O)[*:2])cc2)cc1)c1ccc2ccccc2c1; Bip(4'-NH) = O=C([C@H](Cc1ccc(-c2ccc(N[*:3])cc2)cc1)N[*:1])[*:2]; dArg(ω-Bn(3-CH2OH)) = N=C(NCCC[C@@H](N)C(=O)O)NCc1cccc(CO)c1; Indazole3carbonyl(1-CH2COOH) = O=C(O)Cn1nc(C(=O)*)c2ccccc21; Bip(4'-COOH) = N[C@@H](Cc1ccc(-c2ccc(C(=O)O)cc2)cc1)C(=O)O; Bip(4'-NHAc) = CC(=O)Nc1ccc(-c2ccc(C[C@H](N)C(=O)O)cc2)cc1; Pro(cis-4-Ph) = O=C(O)[C@@H]1C[C@H](c2ccccc2)CN1; Ala(imidazol-2-yl) = N[C@@H](Cc1ncc[nH]1)C(=O)O; dArg(ω-Bn) = N=C(NCCC[C@@H](N)C(=O)O)NCc1ccccc1; Ala(morpholin-4-yl) = N[C@@H](CN1CCOCC1)C(=O)O; Benzoyl(3-OCH2COOH) = O=C(O)COc1cccc(C(=O)*)c1; Phe(3-CONH2) = NC(=O)c1cccc(C[C@H](N)C(=O)O)c1; Bip = N[C@@H](Cc1ccc(-c2ccccc2)cc1)C(=O)O; Tiq1c(1S) = O=C(O)[C@H]1NCCc2ccccc21; Cya = N[C@@H](CS(=O)(=O)O)C(=O)O; 2Pal = N[C@@H](Cc1ccccn1)C(=O)O; Cha = N[C@@H](CC1CCCCC1)C(=O)O; Chg = N[C@H](C(=O)O)C1CCCCC1; Sar = CNCC(=O)O
# Target: TNFα (Homo sapiens, UniProt P01375)
# Sequence (P01375 77-233 limits assumed): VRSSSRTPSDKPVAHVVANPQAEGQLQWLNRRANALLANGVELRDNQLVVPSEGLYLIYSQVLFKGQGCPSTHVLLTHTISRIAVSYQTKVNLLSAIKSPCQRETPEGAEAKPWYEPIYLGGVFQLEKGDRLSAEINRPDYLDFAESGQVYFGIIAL
# Assay: TNF-Induced HEK-Blue Assay
# Type: cell-based
# Details: not given
row,Compound,pIC50
1,CC[C@H](C)[C@@H]1NC(=O)[C@@H](CCCNC(=N)N)NC(=O)[C@H](CC(=O)O)NC(=O)[C@H](Cc2cnc[nH]2)NC(=O)CN(C)C(=O)[C@H](Cc2ccc(-c3ccc(NC(=O)c4nn(CC(=O)O)c5ccccc45)cc3)cc2)NC(=O)[C@H](Cc2ccc(-c3ccc(C(=O)O)cc3)cc2)NC(=O)[C@H](CC2CCCCC2)NC(=O)CSC[C@@H](C(=O)NCC(N)=O)NC(=O)[C@H](CC(C)C)NC(=O)[C@H](Cc2cnc[nH]2)NC(=O)[C@H](C(C)C)NC(=O)[C@@H]2c3ccccc3CCN2C1=O [Example 360] ({CH2CO}-[Cha][Bip(4'-COOH)][Bip(4'-NH)](Indazole3carbonyl(1-CH2COOH))[Sar]HD[dR]I[Tiq1c(1S)]VHLCG-NH2; thioether N-13),> 7.30
2,CC(=O)Nc1ccc(-c2ccc(C[C@@H]3NC(=O)[C@H](Cc4ccc(-c5ccc(C(=O)O)cc5)cc4)NC(=O)[C@H](CC4CCCCC4)NC(=O)CSC[C@@H](C(=O)NCC(N)=O)NC(=O)[C@H](CC(C)C)NC(=O)[C@H](Cc4ccc(O)cc4)NC(=O)[C@H](C(C)C)NC(=O)[C@@H]4c5ccccc5CCN4C(=O)[C@H](C(C)C)NC(=O)[C@@H](CCCNC(=N)N)NC(=O)[C@H](CC(=O)O)NC(=O)[C@@H]4CCCN4C(=O)CN(C)C3=O)cc2)cc1 [Example 278] ({CH2CO}-[Cha][Bip(4'-COOH)][Bip(4'-NHAc)][Sar]PD[dR]V[Tiq1c(1S)]VYLCG-NH2; thioether N-13),6.70 to 7.30

# Same assay, conditions: HEK-Blue-CD40L cells, NF-kB-driven secreted alkaline phosphatase reporter; TNFα 0.5 ng/ml; 18 h; read-out: TNF induced HEK-Blue assay IC50 value
row,pIC50,Compound
1,5.70 to 6.70,CC(=O)Nc1ccc(-c2ccc(C[C@@H]3NC(=O)[C@H](Cc4ccc(-c5ccccc5)cc4)NC(=O)[C@H](CN4CCOCC4)NC(=O)CSC[C@@H](C(=O)NCC(N)=O)NC(=O)[C@H](CC(C)C)NC(=O)[C@H](Cc4cccc(C(N)=O)c4)NC(=O)[C@H](C4CCCCC4)NC(=O)[C@@H]4CCCN4C(=O)[C@H](C(C)C)NC(=O)[C@@H](CCCNC(=N)N)NC(=O)[C@H](CC(=O)O)NC(=O)[C@@H]4CCCN4C(=O)CN(C)C3=O)cc2)cc1 [Example 312] ({CH2CO}-[Ala(morpholin-4-yl)][Bip][Bip(4'-NHAc)][Sar]PD[dR]VP[Chg][Phe(3-CONH2)]LCG-NH2; thioether N-13)
2,6.70 to 7.30,CC(C)C[C@@H]1NC(=O)[C@H](Cc2ccc(O)cc2)NC(=O)[C@H](C(C)C)NC(=O)[C@@H]2CCCN2C(=O)[C@H](C(C)C)NC(=O)[C@@H](CCCNC(=N)N)NC(=O)[C@H](CC(=O)O)NC(=O)[C@@H]2C[C@H](c3ccccc3)CN2C(=O)CN(C)C(=O)[C@H](Cc2ccc(-c3ccccc3)cc2)NC(=O)[C@H](Cc2ccc(-c3ccccc3)cc2)NC(=O)[C@H](CN2CCOCC2)NC(=O)CSC[C@@H](C(=O)NCC(N)=O)NC1=O [Example 98] ({CH2CO}-[Ala(morpholin-4-yl)][Bip][Bip][Sar][Pro(cis-4-Ph)]D[dR]VPVYLCG-NH2; thioether N-13)
3,6.70 to 7.30,CC(=O)Nc1ccc(-c2ccc(C[C@@H]3NC(=O)[C@H](Cc4ccc(-c5ccccc5)cc4)NC(=O)[C@H](CN4CCOCC4)NC(=O)CSC[C@@H](C(=O)NCC(N)=O)NC(=O)[C@H](CC(C)C)NC(=O)[C@H](Cc4ccc(O)cc4)NC(=O)[C@H](C(C)C)NC(=O)[C@@H]4CCCN4C(=O)[C@H](C(C)C)NC(=O)[C@H](CCCNC(=N)N)NC(=O)[C@H](CC(=O)O)NC(=O)[C@H](Cc4ccccn4)NC(=O)CN(C)C3=O)cc2)cc1 [Example 208] ({CH2CO}-[Ala(morpholin-4-yl)][Bip][Bip(4'-NHAc)][Sar][2Pal]DRVPVYLCG-NH2; thioether N-13)
4,6.70 to 7.30,CC(=O)Nc1ccc(-c2ccc(C[C@@H]3NC(=O)[C@H](Cc4ccc(-c5ccccc5)cc4)NC(=O)[C@H](CC4CCCCC4)NC(=O)CSC[C@@H](C(=O)NCC(N)=O)NC(=O)[C@H](CC(C)C)NC(=O)[C@H](Cc4ccc(O)cc4)NC(=O)[C@H](C(C)C)NC(=O)[C@@H]4CCCN4C(=O)[C@H](C(C)C)NC(=O)[C@@H](CCCNC(=N)N)NC(=O)[C@H](CS(=O)(=O)O)NC(=O)[C@@H]4CCCN4C(=O)CN(C)C3=O)cc2)cc1 [Example 309] ({CH2CO}-[Cha][Bip][Bip(4'-NHAc)][Sar]P[Cya][dR]VPVYLCG-NH2; thioether N-13)
5,> 7.30,CC[C@H](C)[C@@H]1NC(=O)[C@@H](CCCNC(=N)N)NC(=O)[C@H](CC(=O)O)NC(=O)[C@H](Cc2cnc[nH]2)NC(=O)CN(C)C(=O)[C@H](Cc2ccc(-c3ccc(NC(=O)c4cccc(CC(=O)O)c4)cc3)cc2)NC(=O)[C@H](Cc2ccc(-c3ccccc3)cc2)NC(=O)[C@H](CC2CCCCC2)NC(=O)CSC[C@@H](C(=O)NCC(N)=O)NC(=O)[C@H](CC(C)C)NC(=O)[C@H](Cc2cnc[nH]2)NC(=O)[C@H](C(C)C)NC(=O)[C@@H]2CCCN2C1=O [Example 444] ({CH2CO}-[Cha][Bip][Bip(4'-NHCO-C6H4-3-CH2COOH)][Sar]HD[dR]IPVHLCG-NH2; thioether N-13)
6,5.70 to 6.70,CC(=O)Nc1ccc(-c2ccc(C[C@@H]3NC(=O)[C@H](Cc4ccc(-c5ccc(C(=O)O)cc5)cc4)NC(=O)[C@H](CN4CCOCC4)NC(=O)CSC[C@@H](C(=O)NCC(N)=O)NC(=O)[C@H](CC(C)C)NC(=O)[C@H](Cc4cccc(C(N)=O)c4)NC(=O)[C@H](C(C)C)NC(=O)[C@@H]4CCCN4C(=O)[C@H](C(C)C)NC(=O)[C@@H](CCCNC(=N)N)NC(=O)[C@H](CC(=O)O)NC(=O)[C@@H]4CCCN4C(=O)CN(C)C3=O)cc2)cc1 [Example 313] ({CH2CO}-[Ala(morpholin-4-yl)][Bip(4'-COOH)][Bip(4'-NHAc)][Sar]PD[dR]VPV[Phe(3-CONH2)]LCG-NH2; thioether N-13)
7,> 7.30,CC(C)C[C@@H]1NC(=O)[C@H](CCCNC(=N)N)NC(=O)[C@H](C(C)C)NC(=O)[C@@H]2CCCN2C(=O)[C@H](C(C)C)NC(=O)[C@@H](CCCNC(=N)N)NC(=O)[C@H](CC(=O)O)NC(=O)[C@@H]2CCCN2C(=O)CN(C)C(=O)[C@H](Cc2ccc(-c3cccc(NC(=O)c4nn(C)c5ncccc45)c3)cc2)NC(=O)[C@H](Cc2ccc(-c3ccccc3)cc2)NC(=O)[C@H](CN2CCOCC2)NC(=O)CSC[C@@H](C(=O)NCC(N)=O)NC1=O [Example 345] ({CH2CO}-[Ala(morpholin-4-yl)][Bip][X9][Sar]PD[dR]VPVRLCG-NH2; thioether N-13)
8,6.70 to 7.30,CC(C)C[C@@H]1NC(=O)[C@H](Cc2ccc(O)cc2)NC(=O)[C@H](C(C)C)NC(=O)[C@@H]2CCCN2C(=O)[C@H](C(C)C)NC(=O)[C@@H](CCCNC(=N)N)NC(=O)[C@H](CC(=O)O)NC(=O)[C@H](Cc2ccc(O)cc2)NC(=O)CNC(=O)[C@H](Cc2ccc(-c3ccccc3)cc2)NC(=O)[C@H](Cc2ccc(-c3ccccc3)cc2)NC(=O)[C@H](CN2CCOCC2)NC(=O)CSC[C@@H](C(=O)NCC(N)=O)NC1=O [Example 131] ({CH2CO}-[Ala(morpholin-4-yl)][Bip][Bip]GYD[dR]VPVYLCG-NH2; thioether N-13)
9,> 7.30,CC[C@H](C)[C@@H]1NC(=O)[C@@H](CCCNC(=N)N)NC(=O)[C@H](CC(=O)O)NC(=O)[C@H](Cc2cnc[nH]2)NC(=O)CN(C)C(=O)[C@H](Cc2ccc(-c3ccc(NC(=O)c4cccc(OCC(=O)O)c4)cc3)cc2)NC(=O)[C@H](Cc2ccc(-c3ccccc3)cc2)NC(=O)[C@H](CN2CCOCC2)NC(=O)CSC[C@@H](C(=O)NCC(N)=O)NC(=O)[C@H](CC(C)C)NC(=O)[C@H](Cc2cnc[nH]2)NC(=O)[C@H](C(C)C)NC(=O)[C@@H]2CCCN2C1=O [Example 441] ({CH2CO}-[Ala(morpholin-4-yl)][Bip][Bip(4'-NH)](Benzoyl(3-OCH2COOH))[Sar]HD[dR]IPVHLCG-NH2; thioether N-13)
10,6.70 to 7.30,CC[C@H](C)[C@@H]1NC(=O)[C@@H](CCCNC(=N)N)NC(=O)[C@H](CC(=O)O)NC(=O)[C@@H]2CCCN2C(=O)CN(C)C(=O)[C@H](Cc2ccc(-c3ccc(NC(C)=O)cc3)cc2)NC(=O)[C@H](Cc2ccc(-c3ccc(C(=O)O)cc3)cc2)NC(=O)[C@H](CC2CCCCC2)NC(=O)CSC[C@@H](C(=O)NCC(N)=O)NC(=O)[C@H](CC(C)C)NC(=O)[C@H](Cc2ccc(O)cc2)NC(=O)[C@H](C(C)C)NC(=O)[C@@H]2CCCN2C1=O [Example 256] ({CH2CO}-[Cha][Bip(4'-COOH)][Bip(4'-NHAc)][Sar]PD[dR]IPVYLCG-NH2; thioether N-13)
11,5.70 to 6.70,CC(C)C[C@@H]1NC(=O)[C@H](Cc2ncc[nH]2)NC(=O)[C@H](C(C)C)NC(=O)[C@@H]2CCCN2C(=O)[C@H](C(C)C)NC(=O)[C@@H](CCCNC(=N)NCc2ccccc2)NC(=O)[C@H](CC(=O)O)NC(=O)[C@H](Cc2ccccn2)NC(=O)CN(C)C(=O)[C@H](Cc2ccc(-c3ccc(NC(=O)c4ccc(CC(=O)O)cc4)cc3)cc2)NC(=O)[C@H](Cc2ccc(-c3ccccc3)cc2)NC(=O)[C@H](CN2CCOCC2)NC(=O)CSC[C@@H](C(=O)NCC(N)=O)NC1=O [Example 642] ({CH2CO}-[Ala(morpholin-4-yl)][Bip][Bip(4'-NHCO-C6H4-4-CH2COOH)][Sar][2Pal]D[dArg(ω-Bn)]VPV[Ala(imidazol-2-yl)]LCG-NH2; thioether N-13)

row,Compound,pIC50
1,CC[C@H](C)[C@@H]1NC(=O)[C@@H](CCCNC(=N)N)NC(=O)[C@H](CC(=O)O)NC(=O)[C@H](Cc2cnc[nH]2)NC(=O)CN(C)C(=O)[C@H](Cc2ccc(-c3ccc(NC(=O)c4ccc5ccccc5c4)cc3)cc2)NC(=O)[C@H](Cc2ccc(-c3ccccc3)cc2)NC(=O)[C@H](CC2CCCCC2)NC(=O)CSC[C@@H](C(=O)NCC(N)=O)NC(=O)[C@H](CC(C)C)NC(=O)[C@H](Cc2cnc[nH]2)NC(=O)[C@H](C(C)C)NC(=O)[C@@H]2CCCN2C1=O [Example 322] ({CH2CO}-[Cha][Bip][X37][Sar]HD[dR]IPVHLCG-NH2; thioether N-13),6.70 to 7.30
2,CC(C)C[C@@H]1NC(=O)[C@H](CCCNC(=N)N)NC(=O)[C@H](C(C)C)NC(=O)[C@@H]2CCCN2C(=O)[C@H](C(C)C)NC(=O)[C@@H](CCCNC(=N)NCc2cccc(CO)c2)NC(=O)[C@H](CC(=O)O)NC(=O)[C@@H]2CCCN2C(=O)CN(C)C(=O)[C@H](Cc2ccc(-c3ccc(NC(=O)c4nn(C)c5ccccc45)cc3)cc2)NC(=O)[C@H](Cc2ccc(-c3ccccc3)cc2)NC(=O)[C@H](CN2CCOCC2)NC(=O)CSC[C@@H](C(=O)NCC(N)=O)NC1=O [Example 448] ({CH2CO}-[Ala(morpholin-4-yl)][Bip][X5][Sar]PD[dArg(ω-Bn(3-CH2OH))]VPVRLCG-NH2; thioether N-13),> 7.30
